pEC50: −log10 of the molar value. Where two headings read alike, the source gives them in different places.
Assays:
[1] = system: genotype 1b (Con-1) HCV replicon; test: HCV replicon luciferase assay; format: cell-based; settings: Hepatitis C virus, 72 h, genotype 1b replicon, Huh-7, Renilla luciferase, 3 days; for pEC50: read-out: EC50 1b (class); for EC50: read-out: EC50 (uM) 1b
Procedure: The cell lines used to evaluate compounds consist of a human hepatocyte derived cell line (Huh-7) that constitutively expresses a genotype 1b (Con-1) HCV replicon or a genotype 1b (Con-1) HCV replicon with an asparagine replacing the cysteine at amino acid 316, or a genotype 2a (JFH-1) replicon, containing a Renilla luciferase reporter gene. These cells were maintained in Dulbecco's modified Eagle medium (DMEM) containing 10% FBS, 100 U/mL penicillin/streptomycin and 1.0 mg/mL G418.
To evaluate compound efficacy, titrated compounds were transferred to sterile 384-well tissue culture treated plates, and the plates were seeded with HCV replicon cells (50 μL at a density of 2.4×10^3 cells/well) in DMEM containing 4% FBS (final DMSO concentration at 0.5%). After 3 days incubation at 37° C., cells were analyzed for Renilla Luciferase activity using the EnduRen substrate (Promega cat #E6485) according to the manufacturer's directions. Briefly, the EnduRen substrate was diluted in DMEM and then added to the plates to a final concentration of 7.5 μM. The plates were incubated for at least 1 h at 37° C. then read on a Viewlux Imager (PerkinElmer) using a luminescence program. The 50% effective concentration (EC50) was calculated using the four-parameter logistic formula noted above.

HCV [2] = settings: cited from earlier work
HCV [3] = settings: cited from earlier work; remark: listed apart in the source

| Molecule | pEC50 [1] | further results |
| --- | --- | --- |
| CNC(=O)c1c(-c2ccc(Oc3ccc(OC)cc3)cc2)oc2nc(CCC(F)(F)F)c(-c3cccc(C(=O)NC(C)(C)C)c3)cc12 [Compound 2003] | 6.00 to 7.00 | – |
| CCN(c1cc2oc(-c3ccc(Oc4ccc(F)cc4)cc3)c(C(=O)NC)c2cc1-c1cccc(C(=O)NC(C)(C)C)c1)S(C)(=O)=O [Compound 1002] | > 7.00 | – |
| CNC(=O)c1c(-c2ccc(Oc3ccc(F)cc3)cc2)oc2cc(N(C)S(C)(=O)=O)c(-c3cccc(C(=O)NCC(F)(F)F)c3)cc12 [Compound 1026] | > 7.00 | – |
| CNC(=O)c1c(-c2ccc(N3CCCC3)cc2)oc2nc(CCC(F)(F)F)c(-c3cccc(C(=O)NC(C)(C)C)c3)cc12 [Compound 4001] | < 6.00 | – |
| CCCCOc1ccc(-c2oc3nc(CCC(F)(F)F)c(-c4cccc(C(=O)NC(C)(C)C)c4)cc3c2C(=O)NC)cc1 [Compound 3001] | > 7.00 | – |
| CNC(=O)c1c(-c2ccc(NCC(F)F)cc2)oc2nc(NCC(F)F)c(-c3cccc(C(=O)NC(C)(C)C)c3)cc12 [Compound 4002] | > 7.00 | EC50 [1]: 0.0094 µM |
| CNC(=O)c1c(-c2ccc(Oc3ccccc3OC)cc2)oc2nc(CCC(F)(F)F)c(-c3cccc(C(=O)NC(C)(C)C)c3)cc12 [Compound 2010] | > 7.00 | – |
| CCN(c1cc2oc(-c3ccc(Oc4ccccc4OC)cc3)c(C(=O)NC)c2cc1-c1cccc(C(=O)NC(C)(C)C)c1)S(C)(=O)=O [Compound 1007] | > 7.00 | EC50 [1]: 0.024 µM |
| CNC(=O)c1c(-c2ccc(Oc3ccccc3)cc2)oc2nc(CCC(F)(F)F)c(-c3cccc(C(=O)NC(C)(C)C)c3)cc12 [Compound 2001] | > 7.00 | – |
| CCNc1nc2oc(-c3ccc(C)cc3)c(C(=O)NC)c2cc1-c1cccc(C(=O)NC2(C(F)(F)F)CC2)c1 [Compound 6003, 6-(ethylamino)-N-methyl-2-(p-tolyl)-5-(3-((1-(trifluoromethyl)cyclopropyl)carbamoyl)phenyl)furo[2,3-b]pyridine-3-carboxamide] | > 7.00 | EC50 [1]: 0.0061 µM |
| CCOC(=O)c1c(-c2ccc(Oc3cccc(O)c3)cc2)oc2cc([N+](=O)[O-])c(O)cc12 [Compound 1014] | < 6.00 | EC50 [1]: 9.94 µM |
| alpha-interferon and ribavirin | – | sustained efficacy, share of patients (HCV [2]): 40% |
| CCN(c1cc2oc(-c3ccc(Oc4ccc(OC)cc4)cc3)c(C(=O)NC)c2cc1-c1cccc(C(=O)NC(C)(C)C)c1)S(C)(=O)=O [Compound 1005] | 6.00 to 7.00 | EC50 [1]: 0.12 µM |
| CCNc1cc2oc(-c3ccc(Oc4cccc(F)c4)cc3)c(C(=O)NC)c2cc1-c1cccc(C(=O)NC(C)(C)CC(=O)O)c1 [Compound 1013] | 6.00 to 7.00 | – |
| CNC(=O)c1c(-c2ccc(Oc3cccc(F)c3)cc2)oc2cc(N(C)S(C)(=O)=O)c(-c3cccc(C(=O)NCC(F)(F)F)c3)cc12 [Compound 1020] | > 7.00 | – |
| CCN(c1cc2oc(-c3ccc(Oc4cccc(F)c4)cc3)c(C(=O)NC)c2cc1-c1cccc(C(=O)NC2(C)CC2)c1)S(C)(=O)=O [Compound 1015] | < 6.00 | – |
| CNC(=O)c1c(-c2ccc(C(C#N)C(N)=O)cc2)oc2nc(CCC(F)(F)F)c(-c3cccc(C(=O)NC(C)(C)C)c3)cc12 (stereo not drawn) [Compound 6001] | 6.00 to 7.00 | EC50 [1]: 0.34 µM |
| CCN(c1cc2oc(-c3ccc(Oc4cccc(F)c4)cc3)c(C(=O)NC)c2cc1-c1cccc(C(=O)NC(C)(C)C)c1)S(C)(=O)=O [Compound 1003] | > 7.00 | EC50 [1]: 0.0023 µM |
| CNC(=O)c1c(-c2ccc(Oc3ccc(C(=O)O)cc3)cc2)oc2nc(CCC(F)(F)F)c(-c3cccc(C(=O)NC(C)(C)C)c3)cc12 [Compound 2013] | < 6.00 | – |
| CCN(c1cc2oc(-c3ccc(Oc4ccccc4)cc3)c(C(=O)NC)c2cc1-c1cccc(C(=O)NC(C)(C)C)c1)S(C)(=O)=O [Compound 1001] | > 7.00 | – |
| CCN(c1cc2oc(-c3ccc(Oc4cccc(F)c4)cc3)c(C(=O)NC)c2cc1-c1cccc(C(=O)N[C@@H](C)C(F)(F)F)c1)S(C)(=O)=O [Compound 1017] | > 7.00 | EC50 [1]: 0.0062 µM |
| CCN(CC)c1cc2oc(-c3ccc(Oc4cccc(F)c4)cc3)c(C(=O)NC)c2cc1-c1ccc(OC)c(C(N)=O)c1 [Compound 1010] | 6.00 to 7.00 | – |
| [2H]C([2H])([2H])C(NC(=O)c1cc(-c2cc3c(C(=O)NC)c(-c4ccc(Oc5cccc(F)c5)cc4)oc3cc2N(CC)S(C)(=O)=O)ccc1OC)(C([2H])([2H])[2H])C([2H])([2H])[2H] [Compound 1021] | > 7.00 | – |

| Molecule | pEC50 [1] | further results |
| --- | --- | --- |
| CCN(CC)c1cc2oc(-c3ccc(Oc4cccc(F)c4)cc3)c(C(=O)NC)c2cc1-c1ccc(O)c(C(N)=O)c1 [Compound 1008] | > 7.00 | EC50 [1]: 0.013 µM |
| CNC(=O)c1c(-c2ccc(Oc3ccccn3)cc2)oc2nc(CCC(F)(F)F)c(-c3cccc(C(=O)NC(C)(C)C)c3)cc12 [Compound 2012] | < 6.00 | – |
| CCN(c1cc2oc(-c3ccc(Oc4cccc(F)c4)cc3)c(C(=O)NC)c2cc1-c1cccc(C(=O)NCC(C)(C)CO)c1)S(C)(=O)=O [Compound 1023] | > 7.00 | EC50 [1]: 0.0028 µM |
| CNC(=O)c1c(-c2ccc(Oc3ccccc3C)cc2)oc2nc(CCC(F)(F)F)c(-c3cccc(C(=O)NC(C)(C)C)c3)cc12 [Compound 2008] | > 7.00 | – |
| CNC(=O)c1c(-c2ccc(Oc3ccc(F)cc3)cc2)oc2nc(CCC(F)(F)F)c(-c3cccc(C(=O)NC(C)(C)C)c3)cc12 [Compound 2004] | > 7.00 | – |
| CCN(c1cc2oc(-c3ccc(Oc4cccc(Cl)c4)cc3)c(C(=O)NC)c2cc1-c1cccc(C(=O)N[C@@H](C)C(F)(F)F)c1)S(C)(=O)=O [Compound 1019] | > 7.00 | – |
| CNC(=O)c1c(-c2ccc(F)cc2)oc2cc(N(CCO)S(C)(=O)=O)c(C3CC3)cc12 [HCV-796] | – | toxicity during extended dosing (HCV [3]; extended dosing of the combination regimens): hepatic toxicity; HCV RNA levels in patients (HCV [3]; patients, single agent transient, more robust with interferon and ribavirin): reduce HCV RNA levels |
| CNC(=O)c1c(-c2ccc(Oc3cccc(F)c3)cc2)oc2nc(CCC(F)(F)F)c(-c3cccc(C(=O)NC(C)(C)C)c3)cc12 [Compound 2005] | > 7.00 | – |
| CCN(c1cc2oc(-c3ccc(Oc4cccc(OC)c4)cc3)c(C(=O)NC)c2cc1-c1cccc(C(=O)NC(C)(C)C)c1)S(C)(=O)=O [Compound 1006] | > 7.00 | – |
| CNC(=O)c1c(-c2ccc(OCC(F)(F)F)cc2)oc2nc(CCC(F)(F)F)c(-c3cccc(C(=O)NC(C)(C)C)c3)cc12 [Compound 3002] | > 7.00 | – |
| CNC(=O)c1c(-c2ccc(Oc3cccnc3)cc2)oc2nc(CCC(F)(F)F)c(-c3cccc(C(=O)NC(C)(C)C)c3)cc12 [Compound 2011] | > 7.00 | – |
| CCN(c1cc2oc(-c3ccc(Oc4ccccc4F)cc3)c(C(=O)NC)c2cc1-c1cccc(C(=O)NC(C)(C)C)c1)S(C)(=O)=O [Compound 1004] | > 7.00 | – |
| CCN(c1cc2oc(-c3ccc(Oc4cccc(F)c4)cc3)c(C(=O)NC)c2cc1-c1cccc(C(N)=O)c1)S(C)(=O)=O [Compound 1018] | > 7.00 | – |
| CCNc1nc2oc(-c3ccc(C)cc3)c(C(=O)NC)c2cc1-c1cccc(C(=O)NC(C)(C)C)c1 [Compound 6002, 5-(3-(tert-butylcarbamoyl)phenyl)-6-(ethylamino)-N-methyl-2-(p-tolyl)furo[2,3-b]pyridine-3-carboxamide] | > 7.00 | EC50 [1]: 0.0036 µM |
| CNC(=O)c1c(-c2ccc(Oc3cccc(F)c3)cc2)oc2nc(CCC(F)(F)F)c(-c3ccc(OC)c(C(=O)NC4(c5ncccn5)CC4)c3)cc12 [Compound 2014] | > 7.00 | – |
| CNC(=O)c1c(-c2ccc(Sc3ccccc3)cc2)oc2nc(CCC(F)(F)F)c(-c3cccc(C(=O)NC(C)(C)C)c3)cc12 [Compound 5001] | 6.00 to 7.00 | EC50 [1]: 0.16 µM |
| CNC(=O)c1c(-c2ccc(Oc3cccc(OC)c3)cc2)oc2nc(CCC(F)(F)F)c(-c3cccc(C(=O)NC(C)(C)C)c3)cc12 [Compound 2009] | > 7.00 | – |
| [2H]C([2H])([2H])C(NC(=O)c1cc(-c2cc3c(C(=O)NC)c(-c4ccc(Oc5ccc(F)cc5)cc4)oc3cc2N(CC)S(C)(=O)=O)ccc1OC)(C([2H])([2H])[2H])C([2H])([2H])[2H] [Compound 1022] | > 7.00 | – |
| CNC(=O)c1c(-c2ccc(Oc3ccccc3F)cc2)oc2nc(CCC(F)(F)F)c(-c3cccc(C(=O)NC(C)(C)C)c3)cc12 [Compound 2006] | > 7.00 | – |
| CNC(=O)c1c(-c2ccc(Oc3cccc(C)c3)cc2)oc2nc(CCC(F)(F)F)c(-c3cccc(C(=O)NC(C)(C)C)c3)cc12 [Compound 2007] | > 7.00 | – |
| CNC(=O)c1c(-c2ccc(Oc3ccc(C)cc3)cc2)oc2nc(CCC(F)(F)F)c(-c3cccc(C(=O)NC(C)(C)C)c3)cc12 [Compound 2002] | > 7.00 | – |
| CCN(CC)c1cc2oc(-c3ccc(Oc4cccc(F)c4)cc3)c(C(=O)NC)c2cc1-c1cccc(C(=O)NC(C)(C)C(=O)O)c1 [Compound 1012] | < 6.00 | EC50 [1]: 1.47 µM |
| CCN(c1cc2oc(-c3ccc(Oc4cccc(Cl)c4)cc3)c(C(=O)NC)c2cc1-c1cccc(C(N)=O)c1)S(C)(=O)=O [Compound 1016] | > 7.00 | – |

Source: US10214534B2, “Substituted 2-phenyl (AZA)benzofuran compounds for the treatment of hepatitis C” (BRISTOL-MYERS SQUIBB COMPANY, priority 2014, dated 2019)
